According to patent publication EP3436024B1, “3-BETA-METHOXY-PREG FOR USE IN THE TREATMENT OF TREATMENT RESISTANT DEPRESSION” (Mapreg, priority 2016, dated 2017):

What was measured:
Dopaminergic D4.4 = Dopaminergic D4.4 (Homo sapiens, UniProt P21917); experiment: CNS receptor binding assay, D4.4; settings: MAP4343 10 µM; [^3H] spiperone; Human recombinant (CHO cells); read-out: % Inhibition of control specific binding
Procedure: (§1) MAP4343 has been screened for in vitro affinity to 80 different CNS neurotransmitters receptors using various validated binding assays.
(§2) Table 4. In vitro affinity of MAP4343 (10 µM) for CNS neurotransmitter receptors associated with side effects and/or abuse liability. Data are the average of two individual assays for each receptor and are expressed as % inhibition of the control specific binding of the reference compound. Results showing an inhibition higher than 50% are considered to represent significant effects of the test compound.

Serotoninergic 5-HT1B = Serotoninergic 5-HT1B (Rattus norvegicus, UniProt P28564); experiment: CNS receptor binding assay, 5-HT1B; settings: MAP4343 10 µM; [^125I] CYP + (-) propranolol; rat cerebral cortex; read-out: % Inhibition of control specific binding
Serotoninergic 5-HT1B, sequence (P28564 whole entry): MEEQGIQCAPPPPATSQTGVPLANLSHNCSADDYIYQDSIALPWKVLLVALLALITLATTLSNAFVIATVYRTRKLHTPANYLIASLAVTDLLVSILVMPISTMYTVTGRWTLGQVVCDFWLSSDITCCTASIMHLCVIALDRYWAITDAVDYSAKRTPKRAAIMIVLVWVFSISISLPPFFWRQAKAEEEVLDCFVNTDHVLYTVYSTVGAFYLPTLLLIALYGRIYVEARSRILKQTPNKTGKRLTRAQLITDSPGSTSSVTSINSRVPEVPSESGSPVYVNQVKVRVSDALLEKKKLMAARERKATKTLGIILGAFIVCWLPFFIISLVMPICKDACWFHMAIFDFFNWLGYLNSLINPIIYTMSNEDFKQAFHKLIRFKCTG
Procedure: as §1, §2

Wistar Kyoto (WKY) rats = experiment: Forced swimming test (FST), WKY rats; type: in vivo, rat; settings: dose-ranging, MAP4343 15 mg/kg, Fig. 6B
Procedure: 3B-methoxy-PREG (also referred to as "MAP4343" in Example 4) was dissolved in sesame oil by sonication using a Sonifer-450 (Branson Ultrasonics Corporation, Danbury, USA) during 1 cycle of 5 pulses in sesame oil. Fluoxetine (Biotrend, Köln, Germany) and Ketamine (Sigma-Aldrich, St-Quentin Fallvier, France) were dissolved in sterile saline solution (NaCl 0.9%). The drug formulations were prepared freshly each day of treatment. MAP4343 was administered subcutaneously (ranging of 1-15 mg/Kg/day) while fluoxetine and ketamine were injected intraperitonealy (10 mg/Kg/day and 30 mg/Kg/day, respectively).
After a 6-day period of acclimatization, all experimental groups received daily successive subcutaneous (250 µl per rat) and intraperitoneal (1 ml/kg) injections. […]
Rats were submitted to the forced swimming test (FST), according the procedure initially described by (Detke et al., 1995) and slightly modified by (Bianchi et al., 2002). […] The pre-test and test sessions were recorded using a video camera placed above the cylinder for subsequent behavioral analysis. The immobility time (in sec) was blindly measured by two independent experimenters from recorded videos. […]
The effects of a dose-ranging administration of MAP4343 were tested in WI and WKY rats on their immobility time measured in FST.

Serotoninergic 5-HT6 = Serotoninergic 5-HT6 (Homo sapiens, UniProt P50406); experiment: CNS receptor binding assay, 5-HT6; settings: MAP4343 10 µM; [^3H] LSD; Human recombinant (CHO cells); read-out: % Inhibition of control specific binding
Serotoninergic 5-HT6, sequence (P50406 whole entry): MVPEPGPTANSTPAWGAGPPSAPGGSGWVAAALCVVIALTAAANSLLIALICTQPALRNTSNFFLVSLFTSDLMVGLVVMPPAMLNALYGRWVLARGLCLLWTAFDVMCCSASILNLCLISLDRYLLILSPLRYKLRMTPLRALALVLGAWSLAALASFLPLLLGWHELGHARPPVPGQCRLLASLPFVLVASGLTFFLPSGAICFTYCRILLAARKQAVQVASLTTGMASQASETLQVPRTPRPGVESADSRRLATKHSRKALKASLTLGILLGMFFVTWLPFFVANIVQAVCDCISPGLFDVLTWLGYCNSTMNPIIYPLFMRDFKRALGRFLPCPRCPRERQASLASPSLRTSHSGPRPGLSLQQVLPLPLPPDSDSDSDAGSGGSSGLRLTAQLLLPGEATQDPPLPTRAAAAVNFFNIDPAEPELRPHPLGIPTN
Procedure: as §1, §2

PC12 cells = experiment: Stimulation of neuritic sprouting; type: cell-based; settings: PC12 cells differentiated with NGF (10 ng/ml), steroid 30 µM, 3 days; relative to PREG
Procedure: Stimulation of neuritic sprouting is conducted on PC12 cells differentiated in the presence of NGF (10 ng/ml) and the steroid being tested (30 µM) for 3 days. For each condition, the average length of the longest 200 neurites […] is measured simultaneously for 3 cultures.

[1] = target: T1, Muscarinic (Cholinergic) M2 (Homo sapiens, UniProt P08172); experiment: CNS receptor binding assay, M2; settings: MAP4343 10 µM; [^3H] AF-DX 384; Human recombinant (CHO cells); read-out: % Inhibition of control specific binding
T1 construct: expressed in transfected cells; host or cells: CHO cells
T1 sequence (P08172 whole entry): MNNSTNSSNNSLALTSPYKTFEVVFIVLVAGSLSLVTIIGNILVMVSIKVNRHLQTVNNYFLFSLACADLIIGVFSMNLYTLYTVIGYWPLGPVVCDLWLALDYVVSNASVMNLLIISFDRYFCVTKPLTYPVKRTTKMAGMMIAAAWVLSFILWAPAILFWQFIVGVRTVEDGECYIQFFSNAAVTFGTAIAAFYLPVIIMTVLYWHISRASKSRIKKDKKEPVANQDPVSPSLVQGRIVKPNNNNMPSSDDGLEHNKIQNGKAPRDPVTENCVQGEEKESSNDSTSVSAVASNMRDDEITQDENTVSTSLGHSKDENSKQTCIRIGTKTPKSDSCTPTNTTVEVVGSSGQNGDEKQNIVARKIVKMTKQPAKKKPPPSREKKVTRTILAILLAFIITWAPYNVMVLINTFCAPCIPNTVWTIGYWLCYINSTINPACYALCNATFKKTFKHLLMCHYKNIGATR
Procedure: as §1, §2

Noradrenergic α1 = experiment: CNS receptor binding assay, α1; settings: MAP4343 10 µM; [^3H] prazosin; rat cerebral cortex
Procedure: as §1, §2

Oppioid K = Oppioid K (Rattus norvegicus, UniProt P34975); experiment: CNS receptor binding assay, opioid K; settings: MAP4343 10 µM; [^3H] U 69593; rat recombinant (CHO cells); read-out: % Inhibition of control specific binding
Oppioid K, sequence (P34975 whole entry): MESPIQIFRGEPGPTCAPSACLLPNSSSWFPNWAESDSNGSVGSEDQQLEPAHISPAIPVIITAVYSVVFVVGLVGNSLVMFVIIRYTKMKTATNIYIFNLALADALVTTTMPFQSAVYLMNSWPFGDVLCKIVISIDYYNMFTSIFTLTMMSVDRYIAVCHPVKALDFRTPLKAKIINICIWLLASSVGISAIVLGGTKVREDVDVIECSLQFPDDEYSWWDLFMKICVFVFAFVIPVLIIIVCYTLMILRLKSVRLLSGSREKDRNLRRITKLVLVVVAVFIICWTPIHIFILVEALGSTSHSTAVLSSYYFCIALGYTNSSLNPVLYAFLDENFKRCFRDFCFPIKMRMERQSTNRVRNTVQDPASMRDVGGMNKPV
Procedure: as §1, §2

Noradrenergic β1 = Noradrenergic β1 (Homo sapiens, UniProt P08588); experiment: CNS receptor binding assay, β1; settings: MAP4343 10 µM; [^3H] (-) CGP 12177; Human recombinant (HEK-293 cells); read-out: % Inhibition of control specific binding
Noradrenergic β1, sequence (P08588 whole entry): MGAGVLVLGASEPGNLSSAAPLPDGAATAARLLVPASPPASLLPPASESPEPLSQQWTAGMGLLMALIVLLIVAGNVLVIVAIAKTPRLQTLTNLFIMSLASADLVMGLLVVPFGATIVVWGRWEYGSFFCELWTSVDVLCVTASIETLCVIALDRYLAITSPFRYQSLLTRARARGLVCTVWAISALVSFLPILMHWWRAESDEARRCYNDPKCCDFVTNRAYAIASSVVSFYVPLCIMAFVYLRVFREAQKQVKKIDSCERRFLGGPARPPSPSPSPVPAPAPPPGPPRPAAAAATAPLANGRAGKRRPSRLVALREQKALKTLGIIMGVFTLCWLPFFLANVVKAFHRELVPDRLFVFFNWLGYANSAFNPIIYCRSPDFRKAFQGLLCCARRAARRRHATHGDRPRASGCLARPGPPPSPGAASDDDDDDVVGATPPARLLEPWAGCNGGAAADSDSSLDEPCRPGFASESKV
Procedure: as §1, §2

[2] = target: T2, Muscarinic (Cholinergic) M3 (Homo sapiens, UniProt P20309); experiment: CNS receptor binding assay, M3; settings: MAP4343 10 µM; [^3H] 4-DAMP; Human recombinant (CHO cells); read-out: % Inhibition of control specific binding
T2 construct: expressed in transfected cells; host or cells: CHO cells
T2 sequence (P20309 whole entry): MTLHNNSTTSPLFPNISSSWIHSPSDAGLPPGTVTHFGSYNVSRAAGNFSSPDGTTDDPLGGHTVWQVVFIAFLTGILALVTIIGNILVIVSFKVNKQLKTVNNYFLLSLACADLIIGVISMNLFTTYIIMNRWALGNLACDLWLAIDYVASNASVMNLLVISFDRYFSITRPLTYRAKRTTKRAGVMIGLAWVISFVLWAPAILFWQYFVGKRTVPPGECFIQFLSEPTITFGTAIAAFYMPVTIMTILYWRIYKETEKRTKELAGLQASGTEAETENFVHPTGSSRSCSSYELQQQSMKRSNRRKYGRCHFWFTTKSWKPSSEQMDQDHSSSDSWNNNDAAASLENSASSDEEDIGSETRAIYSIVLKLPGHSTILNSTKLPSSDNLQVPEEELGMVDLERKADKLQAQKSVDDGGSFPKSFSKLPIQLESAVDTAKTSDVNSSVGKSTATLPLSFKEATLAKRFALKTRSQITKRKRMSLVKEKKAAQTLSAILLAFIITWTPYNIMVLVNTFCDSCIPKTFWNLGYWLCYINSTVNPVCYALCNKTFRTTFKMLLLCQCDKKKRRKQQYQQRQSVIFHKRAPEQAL
Procedure: as §1, §2

Dopaminergic D5 = Dopaminergic D5 (Homo sapiens, UniProt P21918); experiment: CNS receptor binding assay, D5; settings: MAP4343 10 µM; [^3H] SCH 23390; Human recombinant (GH4 cells); read-out: % Inhibition of control specific binding
Dopaminergic D5, sequence (P21918 whole entry): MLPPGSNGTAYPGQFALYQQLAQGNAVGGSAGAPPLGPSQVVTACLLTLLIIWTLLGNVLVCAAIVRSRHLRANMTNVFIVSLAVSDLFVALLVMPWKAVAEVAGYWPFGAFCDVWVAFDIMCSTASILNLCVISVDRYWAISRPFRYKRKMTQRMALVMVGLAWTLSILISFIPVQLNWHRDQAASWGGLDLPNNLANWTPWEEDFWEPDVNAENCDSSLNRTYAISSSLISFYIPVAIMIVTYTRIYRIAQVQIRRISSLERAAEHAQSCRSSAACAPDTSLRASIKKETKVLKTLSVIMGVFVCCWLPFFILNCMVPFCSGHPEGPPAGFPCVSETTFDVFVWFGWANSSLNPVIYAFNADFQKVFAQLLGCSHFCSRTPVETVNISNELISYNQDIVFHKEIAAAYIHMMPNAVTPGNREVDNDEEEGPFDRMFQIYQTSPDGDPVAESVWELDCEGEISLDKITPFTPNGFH
Procedure: as §1, §2

[3] = system: microtubule-associated protein2 (MAP2); experiment: Binding (affinity) by displacement of PREG-3H; settings: index of binding
[4] = target: T3, Glucorticoid Receptor (GR) (Homo sapiens, UniProt P04150); experiment: Radioligand binding assay, steroid hormone receptor GR; settings: MAP4343 10 µM; 3 nM [^3H] Dexamethasone; Human HeLa S3 cells
T3 construct: Human HeLa S3 cells; endogenous in cells; host or cells: HeLa S3
T3 sequence (P04150 whole entry): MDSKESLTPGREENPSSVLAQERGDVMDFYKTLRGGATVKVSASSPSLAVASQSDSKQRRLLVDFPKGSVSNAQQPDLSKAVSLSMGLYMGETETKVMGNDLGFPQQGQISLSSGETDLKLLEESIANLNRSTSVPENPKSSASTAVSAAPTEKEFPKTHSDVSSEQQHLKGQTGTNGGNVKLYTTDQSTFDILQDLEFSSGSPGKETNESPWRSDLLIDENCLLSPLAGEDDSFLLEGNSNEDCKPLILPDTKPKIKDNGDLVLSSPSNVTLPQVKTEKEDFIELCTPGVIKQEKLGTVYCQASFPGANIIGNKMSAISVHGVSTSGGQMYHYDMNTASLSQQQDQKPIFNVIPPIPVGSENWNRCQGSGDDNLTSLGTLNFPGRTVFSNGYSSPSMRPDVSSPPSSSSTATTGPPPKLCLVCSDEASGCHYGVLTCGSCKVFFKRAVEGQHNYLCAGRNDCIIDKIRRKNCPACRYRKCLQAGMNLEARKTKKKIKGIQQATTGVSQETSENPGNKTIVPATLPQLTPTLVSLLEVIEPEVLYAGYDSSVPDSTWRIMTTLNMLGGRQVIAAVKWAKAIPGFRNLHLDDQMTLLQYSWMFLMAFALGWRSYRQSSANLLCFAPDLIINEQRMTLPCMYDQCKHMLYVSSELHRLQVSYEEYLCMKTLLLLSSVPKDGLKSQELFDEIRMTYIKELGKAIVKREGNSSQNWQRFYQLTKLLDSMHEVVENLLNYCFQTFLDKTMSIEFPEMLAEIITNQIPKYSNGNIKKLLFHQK
Procedure: Binding affinity of 3β-methoxy-PREG (MAP4343) for receptors of steroid hormones was evaluated using radioligand binding assays.
Table 3. Affinity of MAP4343 (10 µM) for steroid hormones receptors measured by radioligand binding assays. […] None of the results met significance criteria at concentrations used.

[5] = target: T4, Muscarinic (Cholinergic) M4 (Homo sapiens, UniProt P08173); experiment: CNS receptor binding assay, M4; settings: MAP4343 10 µM; [^3H] 4-DAMP; Human recombinant (CHO cells); read-out: % Inhibition of control specific binding
T4 construct: expressed in transfected cells; host or cells: CHO cells
T4 sequence (P08173 whole entry): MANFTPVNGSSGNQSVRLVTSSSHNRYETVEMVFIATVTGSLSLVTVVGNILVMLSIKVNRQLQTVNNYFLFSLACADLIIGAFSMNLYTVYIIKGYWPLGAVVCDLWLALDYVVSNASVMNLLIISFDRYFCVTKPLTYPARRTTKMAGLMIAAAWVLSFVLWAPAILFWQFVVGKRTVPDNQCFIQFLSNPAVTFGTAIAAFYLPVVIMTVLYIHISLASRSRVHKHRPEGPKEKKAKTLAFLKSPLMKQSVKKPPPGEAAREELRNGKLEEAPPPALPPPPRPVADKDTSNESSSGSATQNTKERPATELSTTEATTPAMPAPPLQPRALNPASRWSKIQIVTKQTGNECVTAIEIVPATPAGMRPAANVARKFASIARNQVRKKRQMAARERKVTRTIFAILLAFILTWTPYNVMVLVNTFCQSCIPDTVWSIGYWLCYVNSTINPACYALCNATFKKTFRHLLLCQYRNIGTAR
Procedure: as §1, §2

Dopaminergic D4.4, sequence (P21917 whole entry): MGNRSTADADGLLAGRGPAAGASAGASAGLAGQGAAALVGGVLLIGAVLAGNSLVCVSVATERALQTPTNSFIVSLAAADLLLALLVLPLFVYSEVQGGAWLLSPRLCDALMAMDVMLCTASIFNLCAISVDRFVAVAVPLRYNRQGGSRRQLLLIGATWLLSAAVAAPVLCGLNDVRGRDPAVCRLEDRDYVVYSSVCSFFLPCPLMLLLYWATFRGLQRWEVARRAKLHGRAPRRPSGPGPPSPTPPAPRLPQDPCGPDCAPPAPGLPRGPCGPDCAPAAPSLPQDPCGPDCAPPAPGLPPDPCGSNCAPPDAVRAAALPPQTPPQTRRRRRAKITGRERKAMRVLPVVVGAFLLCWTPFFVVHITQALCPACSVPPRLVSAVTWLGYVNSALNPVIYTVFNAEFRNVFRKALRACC

For `CO[C@H]1CC[C@@]2(C)C(=CC[C@H]3[C@@H]4CC[C@H](C(C)=O)[C@@]4(C)CC[C@@H]32)C1` (stereo in doubt) [MAP4343, 3β-methoxy-pregna-5-ene-20-one], the inhibition at 10 µM (Dopaminergic D4.4) was 6%, the inhibition at 10 µM (Serotoninergic 5-HT1B) was 4% and the “immobility time measured in FST, change as compared to WKY receiving vehicle alone” value (Wistar Kyoto (WKY) rats) was -25%. The inhibition at 10 µM (Serotoninergic 5-HT6) was 12%, the Neuritic sprouting (PC12 cells) was “+++” and the inhibition at 10 µM [1] was 20%. The “% Inhibition of control specific binding” value (Noradrenergic α1) was 4%, the inhibition at 10 µM (Oppioid K) was 19% and the inhibition at 10 µM (Noradrenergic β1) was 1%. The inhibition at 10 µM [2] was 3%, the inhibition at 10 µM (Dopaminergic D5) was -7% and the Affinity [3] was 100% of PREG. The “% inhibition” value [4] was 21%, the inhibition at 10 µM [4] was less than 25% and the inhibition at 10 µM [5] was 20%.
